Key:
human Kv3.3 channels = target: T1, human Kv3.3 channels (Homo sapiens, UniProt Q14003); assay: hKv3.3 IonWorks Quattro whole-cell current potentiation assay; type: cell-based; conditions: for mean increase in human Kv3.3 peak current at 0 mV: 12.5 micromolar; for EC50: read-out: pEC50 for Kv3.3 (converted)
T1 construct: expressed in transfected cells
T1 sequence (Q14003 1-757): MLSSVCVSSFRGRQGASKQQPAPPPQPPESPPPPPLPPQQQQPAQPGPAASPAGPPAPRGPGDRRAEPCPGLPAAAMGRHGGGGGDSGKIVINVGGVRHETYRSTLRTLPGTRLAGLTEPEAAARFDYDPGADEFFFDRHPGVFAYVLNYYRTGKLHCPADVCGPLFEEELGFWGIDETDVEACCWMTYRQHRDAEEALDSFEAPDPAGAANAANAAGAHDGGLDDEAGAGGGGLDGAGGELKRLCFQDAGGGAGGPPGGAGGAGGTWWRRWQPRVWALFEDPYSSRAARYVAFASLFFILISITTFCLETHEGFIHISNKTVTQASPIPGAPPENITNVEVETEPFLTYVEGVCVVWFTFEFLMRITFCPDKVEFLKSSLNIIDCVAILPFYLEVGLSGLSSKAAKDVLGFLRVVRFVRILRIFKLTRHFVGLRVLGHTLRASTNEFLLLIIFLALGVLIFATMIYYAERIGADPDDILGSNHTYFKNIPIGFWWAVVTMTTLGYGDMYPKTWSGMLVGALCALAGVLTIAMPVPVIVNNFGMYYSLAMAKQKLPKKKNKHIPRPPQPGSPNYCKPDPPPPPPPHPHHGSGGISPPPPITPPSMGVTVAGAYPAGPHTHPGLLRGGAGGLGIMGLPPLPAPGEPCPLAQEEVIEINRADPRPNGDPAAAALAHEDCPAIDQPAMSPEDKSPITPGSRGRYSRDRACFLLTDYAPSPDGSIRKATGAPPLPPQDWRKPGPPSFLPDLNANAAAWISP
Description: The ability of the compounds of the invention to modulate the voltage-gated potassium channel subtypes Kv3.3/Kv3.2/Kv3.1 may be determined using the following assay. Analogous methods may be used to investigate the ability of the compounds of the invention to modulate other channel subtypes.
To assess compound effects on human Kv3.3 channels (hKv3.3), a stable cell line expressing human Kv3.3 channels was created by transfecting Chinese Hamster Ovary (CHO)-K1 cells with a pBacMire_KCNC-3 vector. Cells were cultured in DMEM/F12 (Gibco) supplemented with 10% Foetal Bovine Serum (Gibco), 1× non-essential amino acids (Invitrogen) and geneticin (G418) 400 microg/mL. Cells were grown and maintained at 37° C. in a humidified environment containing 5% CO2 in air.
The day of the experiment, cells were removed from the incubator and the culture medium removed. Cells were washed with 5 ml of Dulbecco's PBS (DPBS) calcium and magnesium free and detached by the addition of 3 ml Versene (Invitrogen, Italy) followed by a brief incubation at 37° C. for 5 minutes. The flask was tapped to dislodge cells and 10 ml of DPBS containing calcium and magnesium was added to prepare a cell suspension. The cell suspension was then placed into a 15 ml centrifuge tube and centrifuged for 2 min at 1200 rpm. After centrifugation, the supernatant was removed and the cell pellet re-suspended in 4 ml of DPBS containing calcium and magnesium using a 5 ml pipette to break up the pellet. Cell suspension volume was then corrected to give a cell concentration for the assay of approximately 3 million cells per ml.
Experiments were conducted at room temperature using IonWorks Quattro™ planar array electrophysiology technology (Molecular Devices Corp.) with PatchPlate™ PPC. Stimulation protocols and data acquisition were carried out using a microcomputer (Dell Pentium 4). Planar electrode hole resistances (Rp) were determined by applying a 10 mV voltage step across each well. These measurements were performed before cell addition. After cell addition and seal formation, a seal test was performed by applying a voltage step from −80 mV to −70 mV for 160 ms. Following this, amphotericin-B solution was added to the intracellular face of the electrode to achieve intracellular access. Cells were held at −70 mV. Leak subtraction was conducted in all experiments by applying 50 ms hyperpolarizing (10 mV) prepulses to evoke leak currents followed by a 20 ms period at the holding potential before test pulses. For hKv3.2 and hKv3.1 assays, from the holding potential of −70 mV, a first test pulse to −15 mV was applied for 100 ms and following a further 100 ms at −70 mV, a second pulse to 40 mV was applied for 50 ms. Cells were then maintained for a further 100 ms at −100 mV and then a voltage ramp from −100 mV to 40 mV was applied over 200 ms. For hKv3.3 assays, from the holding potential of −70 mV, a first test pulse to 0 mV was applied for 500 ms and following a further 100 ms at −70 mV, a second pulse to 40 mV was applied for 200 ms. These longer test pulses were used to study inactivation of hKv3.3 channels.
Test pulses protocol may be performed in the absence (pre-read) and presence (post-read) of the test compound. Pre- and post-reads may be separated by the compound addition followed by a 3-minute incubation.
The intracellular solution contained the following (in mM): K-gluconate 100, KCl 54, MgCl2 3.2, HEPES 5, adjusted to pH 7.3 with KOH. Amphotericin-B solution was prepared as 50 mg/ml stock solution in DMSO and diluted to a final working concentration of 0.1 mg/ml in intracellular solution. The external solution was Dulbecco's Phosphate Buffered Saline (DPBS) and contained the following (in mM): CaCl2 0.90, KCl 2.67, KH2PO4 1.47, MgCl·6H2O 0.493, NaCl 136.9, […] 8.06, with a pH of 7.4. […]

[1] = target: T2, human BK (hKCa1.1/β1) potassium channel (Homo sapiens, UniProt Q12791); assay: BK QPatch HT assay; type: cell-based; conditions: 10 µM concentration (N=3)
T2 construct: expressed in transfected cells; host or cells: CHO cell line
Description: The effects of compounds on cloned human BK (hKCa1.1/β1) potassium channel (encoded by the human KCNMA1 and KCNMB1 genes) were examined in a CHO cell line using a QPatch HT® (Sophion Bioscience A/S, Denmark) assay. Onset and steady-state inhibition of hBK currents were measured using a voltage pulse pattern with a depolarizing test pulse (+100 mV amplitude, 200 ms duration) at 10 s intervals from a holding potential of −80 mV. The peak amplitude of the delayed outward current was measured for each test pulse. The compounds were evaluated at 10 μM in three cells for each compound, after a 3 minute compound application. The steady state inhibition produced by each compound was calculated.

T2 sequence (Q12791 whole entry): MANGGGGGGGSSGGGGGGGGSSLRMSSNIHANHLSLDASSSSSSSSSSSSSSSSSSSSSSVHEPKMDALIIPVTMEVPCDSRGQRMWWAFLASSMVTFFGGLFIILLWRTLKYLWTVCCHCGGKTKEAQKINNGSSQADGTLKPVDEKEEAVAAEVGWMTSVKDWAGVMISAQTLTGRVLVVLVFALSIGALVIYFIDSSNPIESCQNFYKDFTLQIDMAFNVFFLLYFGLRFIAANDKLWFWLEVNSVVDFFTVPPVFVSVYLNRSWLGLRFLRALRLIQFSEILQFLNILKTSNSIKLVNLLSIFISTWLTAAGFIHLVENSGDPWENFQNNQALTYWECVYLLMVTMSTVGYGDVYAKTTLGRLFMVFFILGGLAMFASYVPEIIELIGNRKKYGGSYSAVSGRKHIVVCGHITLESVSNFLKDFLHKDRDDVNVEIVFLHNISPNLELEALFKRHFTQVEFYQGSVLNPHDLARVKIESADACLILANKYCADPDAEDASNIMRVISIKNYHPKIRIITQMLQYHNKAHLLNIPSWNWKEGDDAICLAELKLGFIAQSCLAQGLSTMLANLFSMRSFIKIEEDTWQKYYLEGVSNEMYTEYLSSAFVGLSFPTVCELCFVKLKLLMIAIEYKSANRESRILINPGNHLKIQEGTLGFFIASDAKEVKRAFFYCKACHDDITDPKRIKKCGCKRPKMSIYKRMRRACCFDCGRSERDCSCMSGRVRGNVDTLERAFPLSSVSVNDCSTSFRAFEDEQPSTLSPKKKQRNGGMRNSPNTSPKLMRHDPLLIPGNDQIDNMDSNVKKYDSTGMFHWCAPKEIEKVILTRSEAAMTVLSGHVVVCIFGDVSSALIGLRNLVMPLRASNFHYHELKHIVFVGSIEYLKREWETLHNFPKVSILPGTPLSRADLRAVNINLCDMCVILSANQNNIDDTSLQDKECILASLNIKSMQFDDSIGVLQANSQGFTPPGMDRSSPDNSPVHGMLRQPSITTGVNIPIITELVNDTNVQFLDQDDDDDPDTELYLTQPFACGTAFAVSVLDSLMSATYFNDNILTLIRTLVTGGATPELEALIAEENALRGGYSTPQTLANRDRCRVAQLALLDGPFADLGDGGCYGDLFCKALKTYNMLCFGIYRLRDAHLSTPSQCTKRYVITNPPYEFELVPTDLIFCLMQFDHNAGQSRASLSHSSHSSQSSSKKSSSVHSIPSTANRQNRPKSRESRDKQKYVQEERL
T2 sequence (Q16558 whole entry partner): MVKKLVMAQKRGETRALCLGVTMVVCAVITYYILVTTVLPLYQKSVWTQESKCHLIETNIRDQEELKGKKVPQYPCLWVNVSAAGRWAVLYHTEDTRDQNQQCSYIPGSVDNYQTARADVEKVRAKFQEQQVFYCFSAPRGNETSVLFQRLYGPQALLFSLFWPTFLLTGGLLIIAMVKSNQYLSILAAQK

Question: Cc1ccc(Oc2ncc(N3C(=O)NC(C)(C)C3=O)cn2)c2c1OCC21CC1 [Compound 1, 5,5-dimethyl-3-[2-(7-methylspiro[2H-benzofuran-3,1′-cyclopropane]-4-yl)oxypyrimidin-5-yl]imidazolidine-2,4-dione] was tested. Which “mean increase in human Kv3.3 peak current at 0 mV” value (“mean increase” for short) (human Kv3.3 channels) did it give?
Answer: 192%

Question: What about the EC50 (human Kv3.3 channels) of the same molecule?
Answer: 6.76 µM

Question: What about the “effect on BK channel currents” value [1] of the same molecule?
Answer: No significant effect

Question: CC[C@@]1(C)NC(=O)N(c2cnc(Oc3ccc(C)c(OC(F)(F)F)c3)nc2)C1=O [Compound 2, (5R)-5-ethyl-5-methyl-3-[2-({4-methyl-3-[(trifluoromethyl)oxy]phenyl}oxy)-5-pyrimidinyl]-2,4-imidazolidinedione] was tested. Which “mean increase” value (human Kv3.3 channels) did it give?
Answer: 113%

Question: And the EC50 (human Kv3.3 channels)?
Answer: 11.7 µM

Question: What about the “effect on BK channel currents” value [1] of the same molecule?
Answer: No significant effect

Question: Cc1ccc(Oc2ccc(-n3c(C)n[nH]c3=O)cn2)c2c1OCC21CC1 [Compound 3, 5-methyl-4-{6-[(7-methylspiro[1-benzofuran-3,1′-cyclopropan]-4-yl)oxy]pyridin-3-yl}-2,4-dihydro-3H-1,2,4-triazol-3-one] was tested. Which EC50 (human Kv3.3 channels) did it give?
Answer: 17.4 µM

Question: And the “effect on BK channel currents” value [1]?
Answer: No significant effect

Question: How did the “mean increase” value (human Kv3.3 channels) turn out when CC[C@H]1NC(=O)N(c2ccc(Oc3ccc(C)c4c3C3(CC3)CO4)nc2)C1=O [Compound 4, (5R)-5-ethyl-3-[6-(7-methylspiro[2H-benzofuran-3,1′-cyclopropane]-4-yl)oxy-3-pyridyl]imidazolidine-2,4-dione] was run?
Answer: 365%

— patent publication US11944623B2, “Modulators of Kv3 channels to treat pain” (Autifony Therapeutics Limited, priority 2015, dated 2024)
